ChEMBL document CHEMBL5126623, “Dual Targeting of Steroid Sulfatase and 17β-Hydroxysteroid Dehydrogenase Type 1 by a Novel Drug-Prodrug Approach: A Potential Therapeutic Option for the Treatment of Endometriosis” (J Med Chem, 2022)
pIC50: −log10 of the molar value.

Experiments:
Steryl-sulfatase [1] = biological target: T1, Steryl-sulfatase (Homo sapiens, UniProt P08842); experiment: Inhibition of STS in human T47D cells using [3H]E1S as substrate measured after 24 hrs by HPLC analysis; type: cell-based
T1 sequence (P08842 whole entry): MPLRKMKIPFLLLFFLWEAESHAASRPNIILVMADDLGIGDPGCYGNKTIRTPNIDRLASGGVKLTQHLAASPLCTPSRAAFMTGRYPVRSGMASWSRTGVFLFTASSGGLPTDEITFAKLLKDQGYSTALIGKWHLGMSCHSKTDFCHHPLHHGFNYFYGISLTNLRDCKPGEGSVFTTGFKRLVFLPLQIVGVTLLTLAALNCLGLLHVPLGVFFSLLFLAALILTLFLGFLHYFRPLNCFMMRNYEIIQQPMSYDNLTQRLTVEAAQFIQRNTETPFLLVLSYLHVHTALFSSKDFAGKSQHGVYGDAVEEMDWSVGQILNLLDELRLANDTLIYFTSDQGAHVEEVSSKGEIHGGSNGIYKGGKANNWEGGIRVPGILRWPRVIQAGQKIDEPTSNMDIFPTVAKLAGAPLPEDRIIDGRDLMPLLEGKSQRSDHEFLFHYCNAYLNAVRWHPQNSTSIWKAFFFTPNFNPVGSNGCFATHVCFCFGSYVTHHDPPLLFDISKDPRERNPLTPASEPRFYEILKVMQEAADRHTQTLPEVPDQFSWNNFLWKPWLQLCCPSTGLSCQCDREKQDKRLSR

[2] = biological target: T2, 17-beta-hydroxysteroid dehydrogenase type 1 (Homo sapiens, UniProt P14061); experiment: Inhibition of 17beta-HSD1 in human T47D cells using [3H]E1S as substrate measured after 24 hrs by HPLC analysis; type: cell-based
T2 sequence (P14061 whole entry): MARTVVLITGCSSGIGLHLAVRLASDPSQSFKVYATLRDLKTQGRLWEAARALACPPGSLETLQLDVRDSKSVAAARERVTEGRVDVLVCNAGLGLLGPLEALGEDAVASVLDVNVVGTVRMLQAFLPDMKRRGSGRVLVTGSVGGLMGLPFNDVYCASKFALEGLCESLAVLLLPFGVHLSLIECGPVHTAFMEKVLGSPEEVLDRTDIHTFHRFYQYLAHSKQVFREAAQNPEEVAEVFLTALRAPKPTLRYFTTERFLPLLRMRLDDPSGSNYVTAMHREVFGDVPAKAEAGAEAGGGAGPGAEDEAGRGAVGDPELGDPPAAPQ

Homo sapiens = species on record: Homo sapiens; experiment: Selectivity ratio of IC50 for human placental microsomal fraction 17beta-HSD2 to IC50 for human placental cytosolic fraction 17beta-HSD1
Steryl-sulfatase [3] = biological target: T1, Steryl-sulfatase; experiment: Irreversible inhibition of STS in human T47D cells using [3H]E1S as substrate measured after 24 hrs by HPLC analysis; type: cell-based
[4] = Metabolic stability in human liver S9 fraction assessed as intrinsic clearance at 1 uM in presence of NADPH measured upto 60 min by LC-MS/MS analysis; type: ADME, subcellular; conditions: s9, 1 h
[5] = Metabolic stability in mouse liver S9 fraction assessed as intrinsic clearance at 1 uM in presence of NADPH measured upto 60 min by LC-MS/MS analysis; type: ADME, subcellular; conditions: s9, 1 h
[6] = Metabolic stability in human liver S9 fraction assessed as half life at 1 uM in presence of NADPH measured upto 60 min by LC-MS/MS analysis; type: ADME, subcellular
[7] = Metabolic stability in mouse liver S9 fraction assessed as half life at 1 uM in presence of NADPH measured upto 60 min by LC-MS/MS analysis; type: ADME, subcellular
[8] = biological target: T2, 17-beta-hydroxysteroid dehydrogenase type 1; experiment: Inhibition of human placental cytosolic fraction 17beta-HSD1 using [3H]-E1 as substrate in presence of NADH measured after 10 mins by HPLC method; type: subcellular, Placenta, Cytosol
[9] = biological target: T3, 17-beta-hydroxysteroid dehydrogenase type 2 (Homo sapiens, UniProt P37059); experiment: Inhibition of human placental microsomal fraction 17beta-HS2 using [3H]-E2 as substrate in presence of NAD+ measured after 10 mins by HPLC method; type: subcellular, Placenta, Microsome
T3 sequence (P37059 whole entry): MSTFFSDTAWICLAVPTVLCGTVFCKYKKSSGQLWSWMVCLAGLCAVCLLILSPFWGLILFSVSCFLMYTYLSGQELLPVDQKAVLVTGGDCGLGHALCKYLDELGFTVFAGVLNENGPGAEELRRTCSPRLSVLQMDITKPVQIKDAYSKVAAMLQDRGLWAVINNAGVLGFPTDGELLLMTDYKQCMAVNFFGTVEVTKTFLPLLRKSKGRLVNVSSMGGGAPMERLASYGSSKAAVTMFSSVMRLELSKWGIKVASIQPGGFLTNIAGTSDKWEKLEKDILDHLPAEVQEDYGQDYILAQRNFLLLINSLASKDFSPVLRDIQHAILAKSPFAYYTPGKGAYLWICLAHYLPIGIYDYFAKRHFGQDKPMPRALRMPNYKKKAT

[10] = Cytotoxicity against human HEK293 cells assessed as cell growth inhibition at 20 uM measured at 48 hrs bt MTT assay relative to control; type: toxicity, cell-based

| Structure (SMILES) | pIC50 (Steryl-sulfatase [1]) | pIC50 [2] | Ratio IC50 (Homo sapiens) | pIC50 [8] | pIC50 [9] | also measured |
| --- | --- | --- | --- | --- | --- | --- |
| Cc1ccccc1N(C)C(=O)c1nnc(-c2ccc(OS(N)(=O)=O)cc2)o1 | 5.96 | – | – | – | – | – |
| Cc1ccccc1N(C)C(=O)c1ccc(-c2ccc(OS(N)(=O)=O)cc2F)o1 | 7.92 | – | – | – | – | pIC50 (Steryl-sulfatase [3]): 7.80; intrinsic clearance [4]: 14 µL/min/mg; intrinsic clearance [5]: 38 µL/min/mg; half-life at 1 µM [6]: 51 min; half-life at 1 µM [7]: 23 min |
| Cc1ccccc1N(C)C(=O)c1ccc(-c2ccccc2O)o1 | – | 5.72 | > 5.2 | 5.72 | < 5.00 | – |
| Cc1ccccc1N(C)C(=O)c1nnc(-c2ccc(O)cc2)o1 | – | 6.49 | 13 | 6.31 | 5.21 | – |
| Cc1cccnc1N(C)C(=O)c1ccc(-c2ccc(OS(N)(=O)=O)cc2)o1 | 5.96 | – | – | – | – | – |
| Cc1ccccc1N(C)C(=O)c1cnc(-c2ccc(O)cc2)s1 | – | 6.47 | 7.5 | 6.22 | 5.35 | – |
| Cc1ccccc1N(C)C(=O)c1csc(-c2ccc(O)cc2)n1 | – | 7.92 | 115 | 7.47 | 5.41 | – |
| Cc1ccc(F)cc1N(C)C(=O)c1ccc(-c2ccc(OS(N)(=O)=O)cc2)o1 | 7.40 | – | – | – | – | intrinsic clearance [4]: 21 µL/min/mg; intrinsic clearance [5]: 180 µL/min/mg; half-life at 1 µM [6]: 34 min; half-life at 1 µM [7]: 3.9 min |
| Cc1ccccc1N(C)C(=O)c1ccc(-c2cccc(OS(N)(=O)=O)c2)o1 | 6.16 | – | – | – | – | – |
| Cc1ccccc1N(C)C(=O)c1cnc(-c2ccc(OS(N)(=O)=O)cc2)s1 | 6.89 | – | – | – | – | – |
| Cc1ncccc1N(C)C(=O)c1ccc(-c2ccc(OS(N)(=O)=O)cc2)o1 | 6.57 | – | – | – | – | – |
| NS(=O)(=O)Oc1ccc2c3c(c(=O)oc2c1)CCCCC3 [IROSUSTAT] | – | – | – | – | – | half-life at 1 µM [7]: 3 min |
| Cc1ccccc1N(C)C(=O)c1ccc(-c2ccc(OS(N)(=O)=O)c(F)c2)o1 | 7.77 | – | – | – | – | pIC50 (Steryl-sulfatase [3]): 7.77; intrinsic clearance [4]: 16 µL/min/mg; intrinsic clearance [5]: 140 µL/min/mg; half-life at 1 µM [6]: 43 min; half-life at 1 µM [7]: 6.1 min |
| Cc1cc(-c2ccc(C(=O)N(C)c3ccccc3C)o2)ccc1OS(N)(=O)=O | 6.24 | – | – | – | – | – |
| O=c1ccc2ccc(O)cc2o1 [UMBELLIFERONE] | – | – | – | – | – | intrinsic clearance [4]: 140 µL/min/mg; intrinsic clearance [5]: 280 µL/min/mg |
| Cc1ccccc1N(C)C(=O)c1csc(-c2ccc(OS(N)(=O)=O)cc2)n1 | 7.20 | – | – | – | – | pIC50 (Steryl-sulfatase [3]): 7.22; intrinsic clearance [4]: 14 µL/min/mg; intrinsic clearance [5]: 46 µL/min/mg; half-life at 1 µM [6]: 50 min; half-life at 1 µM [7]: 15 min |
| Cc1ccccc1N(C)C(=O)c1coc(-c2ccc(OS(N)(=O)=O)cc2)n1 | 7.22 | – | – | – | – | pIC50 (Steryl-sulfatase [3]): 7.17; intrinsic clearance [4]: 3.9 µL/min/mg; intrinsic clearance [5]: 15 µL/min/mg; half-life at 1 µM [6]: 180 min; half-life at 1 µM [7]: 47 min |
| Cc1ccncc1N(C)C(=O)c1ccc(-c2ccc(OS(N)(=O)=O)cc2)o1 | 6.09 | – | – | – | – | – |
| Cc1ccccc1N(C)C(=O)c1coc(-c2ccc(O)cc2)n1 | – | 6.96 | > 40 | 6.60 | < 5.00 | – |

Continued, in another order:

| pIC50 (Steryl-sulfatase [1]) | pIC50 [2] | Ratio IC50 (Homo sapiens) | pIC50 [8] | pIC50 [9] | Structure (SMILES) | also measured |
| --- | --- | --- | --- | --- | --- | --- |
| – | 8.07 | 150 | – | – | Cc1cc(-c2ccc(C(=O)N(C)c3ccccc3C)o2)ccc1O | – |
| – | 8.00 | 42 | – | – | Cc1ccccc1N(C)C(=O)c1ccc(-c2ccc(O)cc2F)o1 | – |
| – | 8.12 | 74 | 7.64 | 5.77 | Cc1cc(F)ccc1N(C)C(=O)c1ccc(-c2ccc(O)cc2)o1 | – |
| – | 7.28 | 74 | – | – | Cc1ccccc1N(C)C(=O)c1ccc(-c2ccc(O)c(Cl)c2)o1 | inhibition at 48 h, 20 µM [10]: 55% |
| – | 7.54 | 19 | 6.82 | 5.55 | Cc1ccccc1N(C)C(=O)c1ccc(-c2cccc(O)c2)o1 | – |
| – | 7.30 | 23 | 6.77 | 5.41 | Cc1c(F)cccc1N(C)C(=O)c1ccc(-c2ccc(O)cc2)o1 | – |
| 7.85 | – | – | – | – | Cc1cc(F)ccc1N(C)C(=O)c1ccc(-c2ccc(OS(N)(=O)=O)cc2)o1 | pIC50 (Steryl-sulfatase [3]): 7.82; intrinsic clearance [4]: 16 µL/min/mg; intrinsic clearance [5]: 150 µL/min/mg; half-life at 1 µM [6]: 44 min; half-life at 1 µM [7]: 4.6 min |
| – | 7.85 | 13 | – | – | Cc1ccccc1N(C)C(=O)c1ccc(-c2ccc(O)cc2Cl)o1 | – |
| – | 8.00 | 85 | 7.96 | – | Cc1ccccc1N(C)C(=O)c1ccc(-c2ccc(O)c(F)c2)o1 | – |
| – | 7.19 | > 77 | 6.59 | < 4.70 | Cc1ccncc1N(C)C(=O)c1ccc(-c2ccc(O)cc2)o1 | – |
| – | 7.92 | 54 | 7.39 | 5.66 | Cc1ccc(F)cc1N(C)C(=O)c1ccc(-c2ccc(O)cc2)o1 | – |
| 6.82 | – | – | – | – | Cc1cccc(F)c1N(C)C(=O)c1ccc(-c2ccc(OS(N)(=O)=O)cc2)o1 | – |
| – | 5.96 | > 3 | 5.48 | < 5.00 | Cc1cccnc1N(C)C(=O)c1ccc(-c2ccc(O)cc2)o1 | – |
| 7.57 | – | – | – | – | Cc1c(F)cccc1N(C)C(=O)c1ccc(-c2ccc(OS(N)(=O)=O)cc2)o1 | pIC50 (Steryl-sulfatase [3]): 7.60; intrinsic clearance [4]: 29 µL/min/mg; intrinsic clearance [5]: 150 µL/min/mg; half-life at 1 µM [6]: 21 min; half-life at 1 µM [7]: 4.8 min |
| – | 6.92 | 10 | 6.51 | 5.49 | Cc1cccc(F)c1N(C)C(=O)c1ccc(-c2ccc(O)cc2)o1 | – |
| – | 7.37 | > 190 | 6.80 | < 4.52 | Cc1ncccc1N(C)C(=O)c1ccc(-c2ccc(O)cc2)o1 | – |
